Measured values as given in article PMC7031696 (Cell chemical biology, 2019).
Like-named read-outs stand apart in the source and are kept apart here.

Legend:
[1] = tested on: Plasmodium falciparum 3D7-A10 parasites; assay: Stage specificity assay (8-h exposure of synchronized stages, IC50^8h); assay type: cell-based; details: for IC50: Plasmodium falciparum
[2] = tested on: asynchronous 3D7-A10 parasite cultures; assay: Standard 72-h exposure asexual blood stage susceptibility assay (IC50^72h); assay type: cell-based, Plasmodium falciparum; details: Plasmodium falciparum, 3D7, 72 h, read-out: Overall (72hr assay) Mean IC50 (IC50^72h)
[3] = tested on: 3D7-MR4 trophozoite parasite-infected RBCs; assay: Metabolomic profiling (hydrophilic metabolite changes, UHPLC-MS); assay type: cell-based, Plasmodium falciparum

CN(C)c1ccc2nc3ccc(=[N+](C)C)cc-3sc2c1 [Methylene blue, reference compound]
Ratio lowest IC50 8hr/IC50 72hr ([1]; 3D7-A10): 1.8 | IC50 ([1]; 3D7, read-out: Early rings Mean IC50 (IC50^8h), 8-h exposure 0–8 hr, 3D7-A10, survival at 60 h): 3.2 nM | IC50 ([1]; 3D7, read-out: Early trophozoites Mean IC50 (IC50^8h), 8-h exposure 16–24 hr, 3D7-A10, survival at 60 h): 5.9 nM | IC50 ([1]; 3D7, read-out: Late rings Mean IC50 (IC50^8h), 8-h exposure 8–16 hr, 3D7-A10, survival at 60 h): 13.3 nM | IC50 ([1]; 3D7, read-out: Late trophozoites Mean IC50 (IC50^8h), 8-h exposure 24–32 hr, 3D7-A10, survival at 60 h): 8.3 nM | IC50 ([1]; 3D7, read-out: Schizonts Mean IC50 (IC50^8h), 8-h exposure 32–40 hr, 3D7-A10, survival at 60 h): 64.8 nM | Stage of peak activity (Figure 6) ([1]; period when the parasite was most susceptible (lowest IC50^8h)): rings and trophozoites | IC50 [2]: 1.8 nM | changes within the set of metabolites detected (low fold change group) ([3]; 10 × IC50^72h, 2.5 hr, trophozoites): did not induce major changes | Log2(fold changes) 3-phosphoglycerate ([3]; metabolite 3-phosphoglycerate, log2 fold change): 0.1717 | Log2(fold changes) 4-Pyridoxic acid ([3]; metabolite 4-Pyridoxic acid, log2 fold change): 0.0000 | Log2(fold changes) 4-aminobutyrate ([3]; metabolite 4-aminobutyrate, log2 fold change): -0.1073 | Log2(fold changes) 4-phosphopantetheine ([3]; metabolite 4-phosphopantetheine, log2 fold change): 0.0000 | Log2(fold changes) 4-phosphopantothenate ([3]; metabolite 4-phosphopantothenate, log2 fold change): -0.3089 | Log2(fold changes) 5-aminopentanoic acid ([3]; metabolite 5-aminopentanoic acid, log2 fold change): 0.0000 | Log2(fold changes) 5-methyl-THF ([3]; metabolite 5-methyl-THF, log2 fold change): 0.0000 | Log2(fold changes) 5-phosphoribosyl-1-pyrophosphate ([3]; metabolite 5-phosphoribosyl-1-pyrophosphate, log2 fold change): 0.7627 | Log2(fold changes) 6-phospho-D-gluconate ([3]; metabolite 6-phospho-D-gluconate, log2 fold change): 0.0184 | Log2(fold change) HVDD ([3]; metabolite HVDD): 0.0000 | Log2(fold change) Hydroxyisocaproic acid ([3]; metabolite Hydroxyisocaproic acid): 0.0000 | Log2(fold change) IDP ([3]; metabolite IDP): 0.2471 | Log2(fold change) IMP ([3]; metabolite IMP): -0.1535 | Log2(fold change) Inositol ([3]; metabolite Inositol): 0.0000 | Log2(fold change) Isopentyl-PP ([3]; metabolite Isopentyl-PP): 0.0000 | Log2(fold change) L-arginino-succinate ([3]; metabolite L-arginino-succinate): 0.0000 | Log2(fold change) LD ([3]; metabolite LD): -0.0546 | Log2(fold change) Myristoyl/tetradecanoyl-CoA ([3]; metabolite Myristoyl/tetradecanoyl-CoA): 0.0000 | Log2(fold change) N-Acetyl-L-alanine ([3]; metabolite N-Acetyl-L-alanine): 0.0660 | Log2(fold change) N-acetyl-L-ornithine ([3]; metabolite N-acetyl-L-ornithine): -0.0972 | Log2(fold change) N-acetyl-glucosamine-1/6-phosphate ([3]; metabolite N-acetyl-glucosamine-1/6-phosphate): -0.3026 | Log2(fold change) N-acetyl-glutamate ([3]; metabolite N-acetyl-glutamate): -0.1200 | Log2(fold change) N-acetyl-glutamine ([3]; metabolite N-acetyl-glutamine): 0.0000 | Log2(fold change) N-carbamoyl-L-aspartate ([3]; metabolite N-carbamoyl-L-aspartate): -0.4399 | Log2(fold change) NAD+ ([3]; metabolite NAD+): -0.1775 | Log2(fold change) NADH ([3]; metabolite NADH): 0.6869 | Log2(fold change) NADP+ ([3]; metabolite NADP+): 0.0190 | Log2(fold change) NADPH ([3]; metabolite NADPH): 0.5257 | Log2(fold change) O-acetyl-L-serine ([3]; metabolite O-acetyl-L-serine): 0.0000 | Log2(fold change) Octoluse 8/1P ([3]; metabolite Octoluse 8/1P): -0.1481 | Log2(fold change) Octoluse Bisphosphate ([3]; metabolite Octoluse Bisphosphate): -0.0868 | Log2(fold change) PD ([3]; metabolite PD): -0.1726 | Log2(fold change) PE ([3]; metabolite PE): -0.0321 | Log2(fold change) PEE ([3]; metabolite PEE): 0.0787 | Log2(fold change) PEEK ([3]; metabolite PEEK): 0.2857 | Log2(fold change) PVNF ([3]; metabolite PVNF): 0.3021 | Log2(fold change) Pyroglutamic acid ([3]; metabolite Pyroglutamic acid): -0.1430 | Log2(fold change) Pyrophosphate ([3]; metabolite Pyrophosphate): 0.0000 | Log2(fold change) Ribose-5-phosphate ([3]; metabolite Ribose-5-phosphate): 0.0744 | Log2(fold change) S-adenosyl-L-homocysteine ([3]; metabolite S-adenosyl-L-homocysteine): -0.2409 | Log2(fold change) S-adenosyl-L-methioninamine ([3]; metabolite S-adenosyl-L-methioninamine): 0.0000 | Log2(fold change) S-adenosyl-L-methionine ([3]; metabolite S-adenosyl-L-methionine): 0.0000 | Log2(fold change) S-methyl-5'-thioadenosine ([3]; metabolite S-methyl-5'-thioadenosine): -0.0807 | Log2(fold change) SD ([3]; metabolite SD): -0.0525 | Log2(fold change) SDL ([3]; metabolite SDL): 0.0000 | Log2(fold change) SID ([3]; metabolite SID): 0.0000 | Log2(fold change) Sedoheptulose bisphosphate ([3]; metabolite Sedoheptulose bisphosphate): 0.0024 | Log2(fold change) Thiamine pyrophosphate ([3]; metabolite Thiamine pyrophosphate): -0.2290 | Log2(fold changes) UDP-D-glucose ([3]; metabolite UDP-D-glucose, log2 fold change): -0.0680 | Log2(fold changes) UDP-D-glucuronate ([3]; metabolite UDP-D-glucuronate, log2 fold change): 0.0789 | Log2(fold changes) UDP-N-acetyl-glucosamine ([3]; metabolite UDP-N-acetyl-glucosamine, log2 fold change): -0.1825 | Log2(fold changes) UDP ([3]; metabolite UDP, log2 fold change): -0.3881 | Log2(fold changes) UMP ([3]; metabolite UMP, log2 fold change): -0.2463 | Log2(fold changes) UTP ([3]; metabolite UTP, log2 fold change): -0.0408 | Log2(fold change) hydroxyphenylpyruvate ([3]; metabolite hydroxyphenylpyruvate): 0.0000 | Log2(fold change) hydroxyproline/Aminolevulinate ([3]; metabolite hydroxyproline/Aminolevulinate): 0.0000 | Log2(fold change) hypoxanthine ([3]; metabolite hypoxanthine): 0.0000 | Log2(fold change) indole ([3]; metabolite indole): 0.0000 | Log2(fold change) inosine ([3]; metabolite inosine): -0.4017 | Log2(fold change) isoleucine ([3]; metabolite isoleucine): 0.7210 | Log2(fold change) lactate ([3]; metabolite lactate): -0.1398 | Log2(fold change) leucine ([3]; metabolite leucine): 0.2614 | Log2(fold change) lysine ([3]; metabolite lysine): -0.0829 | Log2(fold change) malate ([3]; metabolite malate): -0.0400 | Log2(fold change) maleic acid ([3]; metabolite maleic acid): -0.0220 | Log2(fold change) methionine ([3]; metabolite methionine): 0.1258 | Log2(fold change) myo-inositol ([3]; metabolite myo-inositol): -0.2003 | Log2(fold change) nicotinamide mononucleotide ([3]; metabolite nicotinamide mononucleotide): -0.1519 | Log2(fold change) nicotinate ([3]; metabolite nicotinate): -0.3017 | Log2(fold change) ornithine ([3]; metabolite ornithine): 0.0000 | Log2(fold change) orotate ([3]; metabolite orotate): -0.5750 | Log2(fold change) orotidine-5'-phosphate ([3]; metabolite orotidine-5'-phosphate): -0.6269 | Log2(fold change) oxaloacetate ([3]; metabolite oxaloacetate): 0.0000 | Log2(fold change) p-aminobenzoate ([3]; metabolite p-aminobenzoate): 0.0000 | Log2(fold change) p-hydroxybenzoate ([3]; metabolite p-hydroxybenzoate): 0.0000 | Log2(fold change) pantothenate ([3]; metabolite pantothenate): -1.6576 | Log2(fold change) phenylalanine ([3]; metabolite phenylalanine): 0.0379 | Log2(fold change) phenylpyruvate ([3]; metabolite phenylpyruvate): 0.0000 | Log2(fold change) phosphoenolpyruvate ([3]; metabolite phosphoenolpyruvate): 0.1672 | Log2(fold change) prephenate ([3]; metabolite prephenate): 0.0000 | Log2(fold change) proline ([3]; metabolite proline): 0.1190 | Log2(fold change) pyridoxine ([3]; metabolite pyridoxine): -0.1182 | Log2(fold change) pyruvate ([3]; metabolite pyruvate): -0.0447 | Log2(fold change) riboflavin ([3]; metabolite riboflavin): -0.0900 | Log2(fold change) ribose ([3]; metabolite ribose): 0.0000 | Log2(fold change) ribose-phosphate ([3]; metabolite ribose-phosphate): -0.1993 | Log2(fold change) ribulose-5-phosphate ([3]; metabolite ribulose-5-phosphate): -0.1201 | Log2(fold change) serine ([3]; metabolite serine): -0.0692 | Log2(fold change) sn-glycerol-3-phosphate ([3]; metabolite sn-glycerol-3-phosphate): 0.0549 | Log2(fold change) succinate/Methylmalonic acid ([3]; metabolite succinate/Methylmalonic acid): 0.4289 | Log2(fold change) succinyl-CoA/methylmalonyl-CoA ([3]; metabolite succinyl-CoA/methylmalonyl-CoA): 0.0000 | Log2(fold change) taurine ([3]; metabolite taurine): 0.1250 | Log2(fold change) thiamine ([3]; metabolite thiamine): -0.2233 | Log2(fold change) threonine/homoserine ([3]; metabolite threonine/homoserine): -0.1021 | Log2(fold change) thymidine ([3]; metabolite thymidine): 0.0000 | Log2(fold changes) thymine ([3]; metabolite thymine, log2 fold change): 0.0000 | Log2(fold changes) trehalose-6-Phosphate ([3]; metabolite trehalose-6-Phosphate, log2 fold change): 0.0000 | Log2(fold changes) tryptophan ([3]; metabolite tryptophan, log2 fold change): 0.0214 | Log2(fold changes) tyrosine ([3]; metabolite tyrosine, log2 fold change): 0.0876 | Log2(fold changes) uridine ([3]; metabolite uridine, log2 fold change): -0.4227
